Common to all, as to experiment: relative viability (nuclei count vs DMSO), 5 days (fraction); higher = more cells survive
Compound in the test “XMD8-85 + Trametinib”: CN1CCN(CC1)C2=CC(=C(C=C2)NC3=NC=C4C(=N3)N(C5=CC=CC=C5C(=O)N4C)C)OC [XMD8-85] + CC(=O)Nc1cccc(-n2c(=O)n(C3CC3)c(=O)c3c(Nc4ccc(I)cc4F)n(C)c(=O)c(C)c32)c1 [Trametinib] (partner 0.02 µM)
In short, it runs like this:
(§1)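 Lung cancer cell lines were pin-tool dosed in 1536-well plates on the day after seeding, with either a lone drug or a fixed anchor-drug dose plus five library-drug doses (not always all listed) in √10 steps. Nuclei were counted on 4× images after 5 days. Relative viability is the ratio of treated-well to vehicle-well nuclei counts, with each value a median of duplicate plates.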

Compound in the test “XMD8-85 + Alpelisib”: CN1CCN(CC1)C2=CC(=C(C=C2)NC3=NC=C4C(=N3)N(C5=CC=CC=C5C(=O)N4C)C)OC [XMD8-85] + Cc1nc(NC(=O)N2CCC[C@H]2C(N)=O)sc1-c1ccnc(C(C)(C)C(F)(F)F)c1 [Alpelisib] (partner 2 µM)
In short, it runs like this:
as §1

Compound in the test “XMD8-85 + Phenformin”: CN1CCN(CC1)C2=CC(=C(C=C2)NC3=NC=C4C(=N3)N(C5=CC=CC=C5C(=O)N4C)C)OC [XMD8-85] + N=C(N)NC(=N)NCCc1ccccc1 [Phenformin] (partner 250 µM)
The method, boiled down: as §1

Compound in the test “4EGI-1 + Vorinostat”: O=C(O)C(Cc1ccccc1[N+](=O)[O-])=NNc1nc(-c2ccc(Cl)c(Cl)c2)cs1 (mixture of isomers) [4EGI-1] + O=C(CCCCCCC(=O)Nc1ccccc1)NO [Vorinostat] (partner 1 µM)
The method, boiled down:
as §1

In the case of NCI-H1651, the relative viability in the test with XMD8-85 + Trametinib (first compound 0.08 µM) was 0.842; in the test with XMD8-85 + Trametinib (first compound 0.253 µM) it was 0.886; with XMD8-85 + Trametinib (first compound 0.8 µM), 0.739; with XMD8-85 + Trametinib (first compound 2.53 µM) it was 0.76; with XMD8-85 + Trametinib (first compound 8 µM), 0.716; with XMD8-85 + Alpelisib (first compound 0.08 µM), 0.948. Also, the relative viability in the test with XMD8-85 + Alpelisib (first compound 0.253 µM) was found to be 0.951; in the test with XMD8-85 + Alpelisib (first compound 0.8 µM), 1.04; with XMD8-85 + Alpelisib (first compound 2.53 µM), 0.954; in the test with XMD8-85 + Alpelisib (first compound 8 µM), 0.548; with XMD8-85 + Phenformin (first compound 0.08 µM), 0.349; with XMD8-85 + Phenformin (first compound 0.253 µM) it was 0.312. The relative viability in the test with XMD8-85 + Phenformin (first compound 0.8 µM) worked out at 0.265; in the test with XMD8-85 + Phenformin (first compound 2.53 µM) it was 0.366; in the test with XMD8-85 + Phenformin (first compound 8 µM) it was 0.298; in the test with 4EGI-1 + Vorinostat (first compound 0.5 µM), 0.523; with 4EGI-1 + Vorinostat (first compound 1.581 µM), 0.477; in the test with 4EGI-1 + Vorinostat (first compound 5 µM), 0.629. Further, the values for the relative viability with 4EGI-1 + Vorinostat (first compound 15.81 µM) and with 4EGI-1 + Vorinostat (first compound 50 µM) were 0.481 and 0.408, respectively.
Consider H3255, for which the relative viability with XMD8-85 + Trametinib (first compound 0.08 µM) came to 0.576; with XMD8-85 + Trametinib (first compound 0.253 µM), 0.593; in the test with XMD8-85 + Trametinib (first compound 0.8 µM), 0.465; with XMD8-85 + Trametinib (first compound 2.53 µM), 0.554; with XMD8-85 + Trametinib (first compound 8 µM), 0.373; with XMD8-85 + Alpelisib (first compound 0.08 µM) it was 0.586. The relative viability with XMD8-85 + Alpelisib (first compound 0.253 µM) turned out to be 0.745; in the test with XMD8-85 + Alpelisib (first compound 0.8 µM) it was 0.68; with XMD8-85 + Alpelisib (first compound 2.53 µM), 0.776; with XMD8-85 + Alpelisib (first compound 8 µM), 0.406; in the test with XMD8-85 + Phenformin (first compound 0.08 µM), 0.401; with XMD8-85 + Phenformin (first compound 0.253 µM), 0.373. Also, the relative viability is 0.339 with XMD8-85 + Phenformin (first compound 0.8 µM); 0.726 in the test with XMD8-85 + Phenformin (first compound 2.53 µM); 0.792 with 4EGI-1 + Vorinostat (first compound 0.5 µM); 0.77 with 4EGI-1 + Vorinostat (first compound 5 µM); 0.735 with 4EGI-1 + Vorinostat (first compound 50 µM).
On to NCI-H1975, for which the relative viability was 0.37 with XMD8-85 + Trametinib (first compound 0.08 µM); 0.376 in the test with XMD8-85 + Trametinib (first compound 0.253 µM); 0.334 in the test with XMD8-85 + Trametinib (first compound 0.8 µM); 0.361 with XMD8-85 + Trametinib (first compound 2.53 µM); 0.268 with XMD8-85 + Trametinib (first compound 8 µM); 0.578 with XMD8-85 + Alpelisib (first compound 0.08 µM). Also, the relative viability with XMD8-85 + Alpelisib (first compound 0.253 µM) stood at 0.649; in the test with XMD8-85 + Alpelisib (first compound 0.8 µM), 0.656; in the test with XMD8-85 + Alpelisib (first compound 2.53 µM), 0.727; with XMD8-85 + Alpelisib (first compound 8 µM), 0.372; with XMD8-85 + Phenformin (first compound 0.08 µM), 0.402; with XMD8-85 + Phenformin (first compound 0.253 µM), 0.409. For the same cell line, the relative viability in the test with XMD8-85 + Phenformin (first compound 0.8 µM) is 0.446; in the test with XMD8-85 + Phenformin (first compound 2.53 µM), 0.464; with XMD8-85 + Phenformin (first compound 8 µM), 0.312; in the test with 4EGI-1 + Vorinostat (first compound 0.5 µM), 0.79; with 4EGI-1 + Vorinostat (first compound 1.581 µM), 0.679; with 4EGI-1 + Vorinostat (first compound 5 µM), 0.754. The relative viability is 0.7 with 4EGI-1 + Vorinostat (first compound 15.81 µM) and 0.357 with 4EGI-1 + Vorinostat (first compound 50 µM).
NCI-H1793: the relative viability was 0.483 with XMD8-85 + Trametinib (first compound 0.253 µM); 0.37 in the test with XMD8-85 + Trametinib (first compound 0.8 µM); 0.481 with XMD8-85 + Trametinib (first compound 2.53 µM); 0.442 in the test with XMD8-85 + Trametinib (first compound 8 µM); 0.914 with XMD8-85 + Alpelisib (first compound 0.08 µM); 0.769 in the test with XMD8-85 + Alpelisib (first compound 0.253 µM). The relative viability in the test with XMD8-85 + Alpelisib (first compound 0.8 µM) was determined as 0.666; with XMD8-85 + Alpelisib (first compound 2.53 µM), 0.851; with XMD8-85 + Alpelisib (first compound 8 µM) it was 0.668; with XMD8-85 + Phenformin (first compound 0.08 µM) it was 0.402; with XMD8-85 + Phenformin (first compound 0.253 µM), 0.409; in the test with XMD8-85 + Phenformin (first compound 0.8 µM) it was 0.38. Further, the relative viability amounted to 0.375 in the test with XMD8-85 + Phenformin (first compound 2.53 µM); 0.317 with XMD8-85 + Phenformin (first compound 8 µM); 1.03 with 4EGI-1 + Vorinostat (first compound 0.5 µM); 0.823 in the test with 4EGI-1 + Vorinostat (first compound 1.581 µM); 0.999 in the test with 4EGI-1 + Vorinostat (first compound 5 µM); 0.516 with 4EGI-1 + Vorinostat (first compound 15.81 µM). Also, the relative viability in the test with 4EGI-1 + Vorinostat (first compound 50 µM) came to 0.353.
As for BEN, the relative viability came to 0.866 with XMD8-85 + Trametinib (first compound 0.08 µM); 1 with XMD8-85 + Trametinib (first compound 0.253 µM); 0.983 in the test with XMD8-85 + Trametinib (first compound 0.8 µM); 0.829 in the test with XMD8-85 + Trametinib (first compound 2.53 µM); 0.681 with XMD8-85 + Trametinib (first compound 8 µM); 0.871 with XMD8-85 + Alpelisib (first compound 0.08 µM). Besides, the relative viability in the test with XMD8-85 + Alpelisib (first compound 0.253 µM) stood at 1.06; in the test with XMD8-85 + Alpelisib (first compound 0.8 µM), 0.966; with XMD8-85 + Alpelisib (first compound 2.53 µM), 0.662; in the test with XMD8-85 + Alpelisib (first compound 8 µM), 0.553; with XMD8-85 + Phenformin (first compound 0.08 µM), 0.275; in the test with XMD8-85 + Phenformin (first compound 0.253 µM), 0.266. For the same cell line, the relative viability with XMD8-85 + Phenformin (first compound 0.8 µM) is 0.267; with XMD8-85 + Phenformin (first compound 2.53 µM), 0.306; with XMD8-85 + Phenformin (first compound 8 µM), 0.258; with 4EGI-1 + Vorinostat (first compound 0.5 µM), 0.63; with 4EGI-1 + Vorinostat (first compound 1.581 µM), 0.599; with 4EGI-1 + Vorinostat (first compound 5 µM), 0.589. Moreover, the relative viability was 0.557 with 4EGI-1 + Vorinostat (first compound 15.81 µM) and 0.442 in the test with 4EGI-1 + Vorinostat (first compound 50 µM).
As for LC-2-ad, the relative viability with XMD8-85 + Trametinib (first compound 0.08 µM) stood at 0.93; with XMD8-85 + Trametinib (first compound 0.253 µM) it was 0.914; in the test with XMD8-85 + Trametinib (first compound 0.8 µM) it was 0.955; in the test with XMD8-85 + Trametinib (first compound 2.53 µM), 0.997; in the test with XMD8-85 + Trametinib (first compound 8 µM) it was 0.458; in the test with XMD8-85 + Alpelisib (first compound 0.08 µM), 0.893. The relative viability in the test with XMD8-85 + Alpelisib (first compound 0.253 µM) was determined as 0.832; with XMD8-85 + Alpelisib (first compound 0.8 µM), 0.888; in the test with XMD8-85 + Alpelisib (first compound 2.53 µM), 0.735; in the test with XMD8-85 + Phenformin (first compound 0.08 µM) it was 0.592; with XMD8-85 + Phenformin (first compound 0.253 µM) it was 0.55; with XMD8-85 + Phenformin (first compound 0.8 µM), 0.611. Also, the relative viability with XMD8-85 + Phenformin (first compound 2.53 µM) was determined as 0.595; in the test with 4EGI-1 + Vorinostat (first compound 0.5 µM), 0.736; with 4EGI-1 + Vorinostat (first compound 1.581 µM), 0.62; with 4EGI-1 + Vorinostat (first compound 5 µM) it was 0.617; with 4EGI-1 + Vorinostat (first compound 15.81 µM) it was 0.356; with 4EGI-1 + Vorinostat (first compound 50 µM), 0.207.
With NCI-H2085, the relative viability with XMD8-85 + Trametinib (first compound 0.08 µM) is 0.651; with XMD8-85 + Trametinib (first compound 0.253 µM), 0.469; in the test with XMD8-85 + Trametinib (first compound 0.8 µM), 0.427; in the test with XMD8-85 + Trametinib (first compound 2.53 µM) it was 0.514; in the test with XMD8-85 + Trametinib (first compound 8 µM) it was 0.355; in the test with XMD8-85 + Alpelisib (first compound 0.08 µM), 0.966. Also, the relative viability was found to be 0.917 with XMD8-85 + Alpelisib (first compound 0.253 µM); 1.01 with XMD8-85 + Alpelisib (first compound 0.8 µM); 0.852 in the test with XMD8-85 + Alpelisib (first compound 2.53 µM); 0.728 with XMD8-85 + Alpelisib (first compound 8 µM); 0.805 in the test with XMD8-85 + Phenformin (first compound 0.08 µM); 0.734 with XMD8-85 + Phenformin (first compound 0.253 µM). For the same cell line, the relative viability in the test with XMD8-85 + Phenformin (first compound 0.8 µM) was found to be 0.752; in the test with XMD8-85 + Phenformin (first compound 2.53 µM), 0.626; in the test with XMD8-85 + Phenformin (first compound 8 µM), 0.516; with 4EGI-1 + Vorinostat (first compound 0.5 µM), 0.922; with 4EGI-1 + Vorinostat (first compound 1.581 µM), 0.815; in the test with 4EGI-1 + Vorinostat (first compound 5 µM), 0.823. Moreover, the relative viability in the test with 4EGI-1 + Vorinostat (first compound 15.81 µM) came to 0.598; with 4EGI-1 + Vorinostat (first compound 50 µM) it was 0.295.

Source of the values: the supplement of paper PMC10307832.
